Measurements reported in patent US20260232691A1, “NBD1 MODULATORS AND METHODS OF USING THE SAME” (Sionna Therapeutics Inc., priority 2023, published 2026).

Assays:
[1] = test system: NBD1; assay: Aggregation analysis using differential static light scattering (DSLS), thermal stability of NBD1; assay type: binding, Human; conditions: 100 μM compound; ΔTagg = Tagg minus average Tagg of DMSO control wells; purified recombinant NBD1
Experimental: Purified recombinant NBD1 was produced using previously described methods (A. Schmidt, J. L. Mendoza, P. J. Thomas (2011) Biochemical and Biophysical Approaches to Probe CFTR Structure (365-376) M. D. Amaral, K. Kunzelmann (eds.), Cystic Fibrosis, Methods in Molecular Biology 741, Springer Science+Business Media). The effect of test compounds on thermal stability of NBD1 was evaluated by differential static light scattering (DSLS) using the Harbinger Stargazer-384 instrument (Epiphyte Three, Toronto, Canada). Test compounds were dissolved and diluted to desired concentrations in 100% DMSO. The compounds or DMSO controls (100 nL) were stamped into wells of a […] low volume optical plate (Corning Inc., Corning, NY) using the Echo 555 acoustic liquid handler (Labcyte Inc., San Jose, CA).
NBD1 protein was diluted to 0.2 mg/ml in S200 buffer (50 mM Tris-HCl, 150 mM NaCl, 5 mM MgCl2, 2 mM ATP, 2 mM DTT, pH7.6) containing 1% glycerol. 10 uL of protein solution was aliquoted into the 384-well plate harboring the test compounds and 10 uL mineral oil was overlayed onto the protein solution, using the epMotion robotic liquid handler (Eppendorf North America, Hauppauge, NY). After placing into the Stargazer instrument, the plate was heated at 1° C. per minute to 70° C. Images were captured from 25° C. to 70° C. every 0.5° C. At the end of the experiment run, instrument software integrated image files and analyzed data automatically. A […] regression curve was generated for each well, representing the increase in light scattering over time. A temperature of aggregation (Tagg) was calculated based on the inflection point of the curve. To better compare data across experiments the average Tagg for DMSO control wells was calculated and subtracted from values for wells containing compounds to obtain a “ΔTagg” value. These ΔTagg values reflect stabilizing efficacy of the compounds.

[2] = molecular target: T1, CFTR (primary human bronchial epithelial cells from a ΔF508 homozygous CF donor, CF-HBE cells) (Homo sapiens, UniProt P13569, DEL508-508); assay: TECC24 recording of CFTR-mediated transepithelial chloride transport, AUC fold over DMSO; assay type: cell-based; conditions: test agent AUC of forskolin-stimulated IEQ divided by vehicle (DMSO) AUC, 48 hours incubation
T1 construct: Primary human bronchial epithelial cells from a ΔF508 homozygous CF donor; host or cells: primary human bronchial epithelial cells (CF-HBE), ΔF508/ΔF508 donor
Experimental: The effects of a test agent on CFTR-mediated transepithelial chloride transport was measured using TECC24 recording analysis. Test agents were solubilized in DMSO. Solubilized test agents were mixed with incubation medium containing DMEM/F12, Ultroser G (2%; Crescent Chemical, catalog #67042), Hyclone Fetal Clone II (2%; GE Healthcare, catalog #SH30066.02), bovine brain extract (0.25%; Lonza, catalog #CC-4098), insulin ([…]), IL-13 (10 ng/mL), hydrocortisone (20 nM), transferrin ([…]), triiodothyronine (500 nM), ethanolamine (250 nM), epinephrine (1.5 μM), phosphoethanolamine (250 nM), and retinoic acid (10 nM). Primary human bronchial epithelial cells from a ΔF508 homozygous CF donor (CF-HBE cells; from University of North Carolina Cystic Fibrosis Tissue Procurement Center), grown on Transwell HTS 24-well cell culture inserts (Costar, catalog #3378), were exposed to test agents or controls dissolved in incubation medium. The CF-HBE cells were cultured at 36.5° C. for 48 hours before TECC24 recordings were performed in the presence or absence of test agent, a positive control or vehicle (DMSO).
Following incubation, the transwell cell culture inserts containing the test agent or control-treated CF-HBE cells were loaded onto a TECC24 apparatus (TECC v7 or MTECC v2; EP Design) to record the transepithelial voltage (VT) and resistance (TEER) using 4 AgCl electrodes per well configured in current-clamp mode. The apical and basolateral bath solutions both contained (in mM) 140 NaCl, 5 KCl, 2 CaCl2), 1 MgCl2, 10 Hepes, and 10 glucose (adjusted to pH 7.4 with NaOH). To inhibit basal Na+ absorption, the ENaC inhibitor benzamil (10 μM) was added to the bath. Then, the adenylate cyclase activator, forskolin (10 μM), was added to the bath to activate CFTR. The forskolin-stimulated Cl—transport was halted by addition of CFTR inhibitor-172 (20 μM) to the bath at the end of the experiment to confirm specificity. VT and TEER recordings were digitally acquired at routine intervals using TECC or MTECC software (EP Design). VT and TEER were transformed into equivalent transepithelial Cl—current (IEQ), and the Area Under the Curve (AUC) of the IEQ time course between forskolin and CFTR inhibitor-172 addition is generated using Excel (Microsoft). Efficacy is expressed as the ratio of the test agent AUC divided by vehicle AUC. EC50s based on AUC are generated using the non-linear regression log(agonist) vs. response function in Prism software (Graphpad) with HillSlope fixed=1.
If a test agent increased the AUC of the forskolin-stimulated IEQ relative to vehicle in CF-HBE cells, and this increase was inhibited by CFTR inhibitor-172, then the test agent was considered a CFTR corrector.

T1 sequence (P13569 with tags, fused parts or gaps DEL508-508): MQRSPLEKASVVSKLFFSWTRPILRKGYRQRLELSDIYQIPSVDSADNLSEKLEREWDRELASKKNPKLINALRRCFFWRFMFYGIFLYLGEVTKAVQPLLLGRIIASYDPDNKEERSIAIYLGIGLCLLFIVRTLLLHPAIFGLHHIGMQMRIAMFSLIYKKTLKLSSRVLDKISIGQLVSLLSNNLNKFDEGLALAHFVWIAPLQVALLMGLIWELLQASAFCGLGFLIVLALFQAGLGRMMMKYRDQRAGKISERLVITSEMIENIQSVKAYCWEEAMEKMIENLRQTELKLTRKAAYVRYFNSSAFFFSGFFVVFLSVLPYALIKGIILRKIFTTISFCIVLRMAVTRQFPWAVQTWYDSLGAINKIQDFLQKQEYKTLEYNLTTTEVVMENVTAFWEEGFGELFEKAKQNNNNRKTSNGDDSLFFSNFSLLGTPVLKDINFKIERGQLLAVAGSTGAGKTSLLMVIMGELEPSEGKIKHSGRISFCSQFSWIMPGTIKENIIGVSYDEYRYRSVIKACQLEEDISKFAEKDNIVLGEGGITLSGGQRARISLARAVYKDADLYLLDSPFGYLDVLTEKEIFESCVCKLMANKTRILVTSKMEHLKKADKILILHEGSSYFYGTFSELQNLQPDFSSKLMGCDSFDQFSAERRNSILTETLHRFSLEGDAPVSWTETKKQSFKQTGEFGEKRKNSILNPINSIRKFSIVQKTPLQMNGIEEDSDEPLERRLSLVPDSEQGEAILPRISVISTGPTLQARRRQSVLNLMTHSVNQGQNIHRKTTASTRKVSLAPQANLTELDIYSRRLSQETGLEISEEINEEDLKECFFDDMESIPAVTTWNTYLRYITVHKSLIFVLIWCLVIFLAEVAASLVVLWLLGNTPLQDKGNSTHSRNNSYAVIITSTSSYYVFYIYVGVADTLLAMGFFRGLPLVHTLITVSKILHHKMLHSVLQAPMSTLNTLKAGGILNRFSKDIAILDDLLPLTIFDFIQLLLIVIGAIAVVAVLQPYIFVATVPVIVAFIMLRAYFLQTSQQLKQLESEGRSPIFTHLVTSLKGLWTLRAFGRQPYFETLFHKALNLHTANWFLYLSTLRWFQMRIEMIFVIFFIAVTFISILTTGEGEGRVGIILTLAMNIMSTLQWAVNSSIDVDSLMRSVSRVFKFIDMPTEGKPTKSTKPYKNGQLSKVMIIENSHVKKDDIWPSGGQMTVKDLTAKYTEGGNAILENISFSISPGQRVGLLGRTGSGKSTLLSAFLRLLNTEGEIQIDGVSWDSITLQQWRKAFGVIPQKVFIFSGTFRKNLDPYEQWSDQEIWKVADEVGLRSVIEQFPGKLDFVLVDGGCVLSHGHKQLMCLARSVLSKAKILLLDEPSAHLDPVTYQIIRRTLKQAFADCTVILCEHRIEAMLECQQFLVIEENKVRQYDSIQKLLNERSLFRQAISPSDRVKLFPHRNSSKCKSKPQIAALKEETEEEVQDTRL

| TECC24 @ 10 uM over DMSO [2] | Compound | DSLS NBD1/3D Human Stability delta-T (° C.) @ 100 (μM) [1] |
| --- | --- | --- |
|  | C[C@H](c1cccc(CC(=O)O)c1F)c1cnc2n1CCc1ccc(Oc3c(F)cc4[nH]ccc4c3F)cc1-2 (single isomer, unassigned) [Example 2] | A (A: T ≥ 8° C.) |
|  | CC(c1nc2n(n1)CCCc1ccc(Oc3c(F)cc4[nH]ccc4c3F)cc1-2)c1cccc(CCC(=O)O)c1F (stereo not shown) [Example 9, 3-(3-(1-(10-((4,6-difluoro-1H-indol-5-yl)oxy)-6,7-dihydro-5H-benzo[c][1,2,4]triazolo[1,5-a]azepin-2-yl)ethyl)-2-fluorophenyl)propanoic acid] | B (B: 4-8° C.) |
|  | C[C@@H](c1cccc(CC(=O)O)c1F)c1cnc2n1CCc1ccc(Oc3c(F)cc4[nH]ccc4c3F)cc1-2 (single isomer, unassigned) [Example 1] | A (A: T ≥ 8° C.) |
| A (“A” refers to AUC @10 uM >= 12) | C[C@H](c1cccc(CCC(=O)O)c1F)c1cnc2n1CCc1ccc(Oc3c(F)cc4[nH]ccc4c3F)cc1-2 (single isomer, unassigned) [Example 6] | A (A: T ≥ 8° C.) |
| C (“C” refers to AUC @10 uM <= 4) | C[C@@H](c1cccc(CCC(=O)O)c1F)c1cnc2n1CCc1ccc(Oc3c(F)cc4[nH]ccc4c3F)cc1-2 (single isomer, unassigned) [Example 5] | B (B: 4-8° C.) |
| C (“C” refers to AUC @10 uM <= 4) | COC(=O)CCc1cccc(C(C)c2nc3n(n2)CCCOc2ccc(Oc4c(F)cc5[nH]ccc5c4F)cc2-3)c1F (stereo not shown) [Example 10, methyl 3-(3-(1-(11-((4,6-difluoro-1H-indol-5-yl)oxy)-6,7-dihydro-5H-benzo[b][1,2,4]triazolo[5,1-d][1,5]oxazocin-2-yl)ethyl)-2-fluorophenyl)propanoate] | C (C: ≤ 4° C.) |
|  | CC(c1nc2n(n1)CC(CO)Oc1ccc(Oc3c(F)cc4[nH]ccc4c3F)cc1-2)c1cccc(CCC(=O)O)c1F (stereo not shown) [Example 12, 3-[3-[1-[10-[(4,6-difluoro-1H-indol-5-yl)oxy]-6-(hydroxymethyl)-5,6-dihydro-[1,2,4]triazolo[1,5-d][1,4]benzoxazepin-2-yl]ethyl]-2-fluoro-phenyl]propanoic acid] | A (A: T ≥ 8° C.) |
| A (“A” refers to AUC @10 uM >= 12) | CC(c1cccc(CC(=O)O)c1F)c1cnc2c3cc(Oc4c(F)cc5[nH]ccc5c4F)ccc3ccn12 (stereo not shown) [Example 3, 2-(3-(1-(9-((4,6-difluoro-1H-indol-5-yl)oxy)imidazo[2,1-a]isoquinolin-3-yl)ethyl)-2-fluorophenyl)acetic acid] | A (A: T ≥ 8° C.) |
|  | CC(c1cn2c(n1)-c1cc(Oc3c(F)cc4[nH]ccc4c3F)ccc1CCC2)c1cccc(CCC(=O)O)c1F (stereo not shown) [Example 8, 3-(3-(1-(10-((4,6-difluoro-1H-indol-5-yl)oxy)-6,7-dihydro-5H-benzo[c]imidazo[1,2-a]azepin-2-yl)ethyl)-2-fluorophenyl)propanoic acid] | A (A: T ≥ 8° C.) |
| A (“A” refers to AUC @10 uM >= 12) | CC(c1nc2n(n1)CCOc1ccc(Oc3c(F)cc4[nH]ccc4c3F)cc1-2)c1cccc(CCC(=O)O)c1F (single isomer, unassigned) [Example 15, 3-[3-[1-[10-[(4,6-difluoro-1H-indol-5-yl)oxy]-5,6-dihydro-[1,2,4]triazolo[1,5-d][1,4]benzoxazepin-2-yl]ethyl]-2-fluoro-phenyl]propanoic acid] | A (A: T ≥ 8° C.) |
|  | CC(c1cccc(CCC(=O)O)c1F)c1cnc2c3cc(Oc4c(F)cc5[nH]ccc5c4F)ccc3ccn12 (stereo not shown) [Example 7, 3-(3-(1-(9-((4,6-difluoro-1H-indol-5-yl)oxy)imidazo[2,1-a]isoquinolin-3-yl)ethyl)-2-fluorophenyl)propanoic acid] | A (A: T ≥ 8° C.) |
| C (“C” refers to AUC @10 uM <= 4) | CC(c1nc2n(n1)CCCOc1ccc(Oc3c(F)cc4[nH]ccc4c3F)cc1-2)c1cccc(CCC(=O)O)c1F (stereo not shown) [Example 11, 3-[3-[1-[14-[(4,6-difluoro-1H-indol-5-yl)oxy]-10-oxa-3,5,6-triazatricyclo[9.4.0.02,6]pentadeca-1(15),2,4,11,13-pentaen-4-yl]ethyl]-2-fluoro-phenyl]propanoic acid] | A (A: T ≥ 8° C.) |
| C (“C” refers to AUC @10 uM <= 4) | CC(c1nc2n(n1)CC(O)COc1ccc(Oc3c(F)cc4[nH]ccc4c3F)cc1-2)c1cccc(CCC(=O)O)c1F (single isomer, unassigned) [Example 13, 3-[3-[1-[14-[(4,6-difluoro-1H-indol-5-yl)oxy]-8-hydroxy-10-oxa-3,5,6-triazatricyclo[9.4.0.02,6]pentadeca-1(15),2,4,11,13-pentaen-4-yl]ethyl]-2-fluoro-phenyl]propanoic acid] | A (A: T ≥ 8° C.) |
|  | CC(c1nc2n(n1)CCOc1ccc(Oc3c(F)cc4[nH]ccc4c3F)cc1-2)c1cccc(CCC(=O)O)c1F (single isomer, unassigned) [Example 16, 3-[3-[1-[10-[(4,6-difluoro-1H-indol-5-yl)oxy]-5,6-dihydro-[1,2,4]triazolo[1,5-d][1,4]benzoxazepin-2-yl]ethyl]-2-fluoro-phenyl]propanoic acid] | C (C: ≤ 4° C.) |

| Compound | TECC24 @ 10 uM over DMSO [2] | DSLS NBD1/3D Human Stability delta-T (° C.) @ 100 (μM) [1] |
| --- | --- | --- |
| CC(c1nc2n(n1)CC(O)COc1ccc(Oc3c(F)cc4[nH]ccc4c3F)cc1-2)c1cccc(CCC(=O)O)c1F (single isomer, unassigned) [Example 14, 3-[3-[1-[14-[(4,6-difluoro-1H-indol-5-yl)oxy]-8-hydroxy-10-oxa-3,5,6-triazatricyclo[9.4.0.02,6]pentadeca-1(15),2,4,11,13-pentaen-4-yl]ethyl]-2-fluoro-phenyl]propanoic acid] | B (“B” refers to AUC @ 10 uM between 4-12) | A (A: T ≥ 8° C.) |
| O=C(O)CCc1cccc(Cc2nc3n(n2)Cc2ccc(Oc4c(F)cc5[nH]ccc5c4F)cc2-3)c1F [Example 4, 3-(3-((8-((4,6-difluoro-1H-indol-5-yl)oxy)-5H-triazolo[5,1-a]isoindol-2-yl)methyl)-2-fluorophenyl)propanoic acid] | B (“B” refers to AUC @ 10 uM between 4-12) | B (B: 4-8° C.) |
